Test results as given in patent US10597388B2, “Pyridazinone herbicides” (FMC CORPORATION, priority 2014, dated 2020).

Columns and labels:
Type in all cases: in vivo
kochia (Kochia scoparia) = assay: Test C greenhouse herbicide test, postemergence
Summary of the method: (§1)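 Ratings are visual scores from 0 (no effect) to 100 (complete control), made against controls 13–15 d after treatment. Postemergence sprays were applied in the greenhouse to plants 2–18 cm tall (1- to 4-leaf stage) in peat-moss/vermiculite potting medium.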

[1] = test system: oat, wild (wild oat, Avena fatua); assay: Test C greenhouse herbicide test, postemergence
Summary of the method: as §1

corn (Zea mays) = assay: Test C greenhouse herbicide test, pre- and postemergence
Summary of the method: (§2)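 Pre- and postemergence greenhouse screen; values are visual control ratings, 0 meaning no effect and 100 complete kill, assigned relative to untreated plants after 13 to 15 d.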

[2] = test system: velvetleaf (Abutilon theophrasti); assay: as above
Summary of the method: as §2

[3] = test system: ryegrass, Italian (Italian ryegrass, Lolium multiflorum); assay: as above
Summary of the method: as §2

[4] = test system: oilseed rape (Brassica napus); assay: as above
Summary of the method: as §2

[5] = test system: johnsongrass (Sorghum halepense); assay: as above
Summary of the method: as §2

soybean (Glycine max) = assay: as above
Summary of the method: as §2

[6] = test system: ragweed (common ragweed, Ambrosia elatior); assay: as above
Summary of the method: as §2

[7] = test system: morningglory (Ipomoea coccinea); assay: as above
Summary of the method: as §2

[8] = test system: blackgrass (Alopecurus myosuroides); assay: as above
Summary of the method: as §2

[9] = test system: waterhemp (common waterhemp, Amaranthus rudis); assay: as above
Summary of the method: as §2

[10] = test system: foxtail, giant (giant foxtail, Setaria faberii); assay: as above
Summary of the method: as §2

[11] = test system: pigweed (Amaranthus retroflexus); assay: as above
Summary of the method: as §2

[12] = test system: crabgrass, large (large crabgrass, Digitaria sanguinalis); assay: as above
Summary of the method: as §2

[13] = test system: lambsquarters (Chenopodium album); assay: as above
Summary of the method: as §2

[14] = Postemergence, 31 g ai/ha, scale 0 to 100 (0 no effect, 100 complete control)
[15] = Postemergence, 62 g ai/ha, 0 to 100 scale (0 no effect, 100 complete control)
[16] = Postemergence, 250 g ai/ha, scale 0 to 100, 0 is no effect, 100 is complete control
[17] = postemergence, 125 g ai/ha, scale 0 to 100, 0 no effect, 100 complete control

## Cc1ccc2ccccc2c1-c1c(OC(=O)N2CCOCC2)c(Br)nn(C)c1=O [Compound 176]
Kochia (Kochia scoparia); [14]
  Plant response rating, Kochia: 90
Kochia (Kochia scoparia); [15]
  Kochia plant response rating: 90
Kochia (Kochia scoparia); [16]
  Plant response rating, Kochia: 100
Kochia (Kochia scoparia); [17]
  Kochia plant response rating: 95
[1]; [14]
  Plant response rating, Oat, Wild: 0
[1]; [15]
  Oat, Wild plant response rating: 5
[1]; [16]
  Plant response rating, Oat, Wild: 35
[1]; [17]
  Oat, Wild plant response rating: 10
Corn (Zea mays); [14]
  Plant response rating, Corn: 0
Corn (Zea mays); [15]
  Corn plant response rating: 10
Corn (Zea mays); [16]
  Plant response rating, Corn: 5
Corn (Zea mays); [17]
  Corn plant response rating: 0
[2]; [14]
  Plant response rating, Velvetleaf: 0
[2]; [15]
  Velvetleaf plant response rating: 25
[2]; [16]
  Plant response rating, Velvetleaf: 80
[2]; [17]
  Velvetleaf plant response rating: 75
[3]; [14]
  Plant response rating, Ryegrass, Italian: 0
[3]; [15]
  Ryegrass, Italian plant response rating: 0
[3]; [16]
  Plant response rating, Ryegrass, Italian: 10
[3]; [17]
  Ryegrass, Italian plant response rating: 0
[4]; [14]
  Plant response rating, Oilseed Rape: 95
[4]; [15]
  Oilseed Rape plant response rating: 95
[4]; [16]
  Plant response rating, Oilseed Rape: 95
[4]; [17]
  Oilseed Rape plant response rating: 95
[5]; [14]
  Plant response rating, Johnsongrass: 5
[5]; [15]
  Johnsongrass plant response rating: 5
[5]; [16]
  Plant response rating, Johnsongrass: 10
[5]; [17]
  Johnsongrass plant response rating: 5
Soybean (Glycine max); [14]
  Plant response rating, Soybean: 5
Soybean (Glycine max); [15]
  Soybean plant response rating: 10
Soybean (Glycine max); [16]
  Plant response rating, Soybean: 10
Soybean (Glycine max); [17]
  Soybean plant response rating: 15
[6]; [14]
  Plant response rating, Ragweed: 0
[6]; [15]
  Ragweed plant response rating: 0
[6]; [16]
  Plant response rating, Ragweed: 0
[6]; [17]
  Ragweed plant response rating: 0
[7]; [14]
  Plant response rating, Morningglory: 85
[7]; [15]
  Morningglory plant response rating: 85
[7]; [16]
  Plant response rating, Morningglory: 100
[7]; [17]
  Morningglory plant response rating: 98
[8]; [14]
  Plant response rating, Blackgrass: 0
[8]; [15]
  Blackgrass plant response rating: 0
[8]; [16]
  Plant response rating, Blackgrass: 0
[8]; [17]
  Blackgrass plant response rating: 0
[9]; [14]
  Plant response rating, Waterhemp: 20
[9]; [15]
  Waterhemp plant response rating: 40
[9]; [16]
  Plant response rating, Waterhemp: 55
[9]; [17]
  Waterhemp plant response rating: 60
[10]; [14]
  Plant response rating, Foxtail, Giant: 5
[10]; [15]
  Foxtail, Giant plant response rating: 15
[10]; [16]
  Plant response rating, Foxtail, Giant: 40
[10]; [17]
  Foxtail, Giant plant response rating: 35
[11]; [14]
  Plant response rating, Pigweed: 20
[11]; [15]
  Pigweed plant response rating: 30
[11]; [16]
  Plant response rating, Pigweed: 75
[11]; [17]
  Pigweed plant response rating: 50
[12]; [14]
  Plant response rating, Crabgrass, Large: 10
[12]; [15]
  Crabgrass, Large plant response rating: 5
[12]; [16]
  Plant response rating, Crabgrass, Large: 30
[12]; [17]
  Crabgrass, Large plant response rating: 20
[13]; [14]
  Plant response rating, Lambsquarters: 60
[13]; [15]
  Lambsquarters plant response rating: 80
[13]; [16]
  Plant response rating, Lambsquarters: 90
[13]; [17]
  Lambsquarters plant response rating: 80
